Measurements reported in patent US20220409617A1, “Drug Formulations and Methods of Treatment for Metabolic Disorders” (The Regents of the University of California, priority 2019, published 2022).

Columns and labels:
[1] = system: mouse embryonic fibroblasts (MEFs); experiment: Ceramide-induced (C16:0 CER, C2-ceramide) mitochondrial fragmentation; format: cell-based; conditions: MEFs, 893 5 μM
Method: 3T3-L1 cells were maintained in DMEM with 10% FBS and 1% penicillin-streptomycin until induced to differentiate. 3T3-L1 pre-adipocytes were differentiated as described in (M. P. Valley, et al., Anal. Biochem. 505: 43-50, 2016, the disclosure of which is incorporated herein by reference) with slight modifications. Briefly, pre-adipocytes were grown to confluence. After 2 d, cells were induced with maintenance media containing 500 μM IBMX (15879, Sigma-Aldrich, St. Louis, Mo.), 1 μM dexamethasone (D4902, Sigma-Aldrich), 5 μg/mL bovine insulin (10516, Sigma-Aldrich), and 5 μM troglitazone (50-115-0786, ApexBio). Media was changed every 2-3 d for 7 d. On day 7 post-induction, media was changed to maintenance media+5 μg/mL bovine insulin. On day 9 post-induction, media was changed to maintenance media. Mature adipocytes were used 12-14 d post-induction for all experiments. LSL-KrasG12D mouse embryonic fibroblasts (MEFs) with and without Cre-mediated deletion of the STOP cassette were obtained from David Tuveson (Cold Spring Harbor Laboratory, Cold Spring Harbor N.Y., USA) in 2000. p53^flox/flox MEFs were derived in house (2015) from C57BL/6 mice using standard techniques and immortalized by transient expression of Cre recombinase and deletion of p53. MEFs were cultured and maintained in DMEM with 10% FBS and 1% penicillin-streptomycin. A549 cells were cultured in DMEM with 10% FBS, 1% penicillin-streptomycin and 1% sodium pyruvate. Stock solution of palmitic acid (ACROS Organics, cat # AC129702500) was prepared at 100 mM in ethanol. Palmitate (250 μM) was conjugated to 1% (w/v) fatty-acid free bovine serum albumin (Sigma, A8806) in DMEM at 37° C. for 20 min. For all immunofluorescence assays, 8,000 MEFs were seeded into 8-chamber slides (Cellvis, cat # C8-1.5H-N) 12-16 h before treatment. Cells were pre-treated with sphingolipid-like compound 893 (5 μM in water), myriocin (10 μM in methanol), fumonisin-B1 (30 μM in DMSO), or celastrol (500 nM in DMSO) for 3 h followed by a 3 h treatment with BSA-conjugated palmitate mixture or BSA alone. Where cells were treated with C2-ceramide (50 μM in DMSO) or C16:0 ceramide (100 μM in ethanol) for 3 h, cells were pre-treated with sphingolipid-like compound 893 for 1-3 h as indicated, mdivi-1 (50 μM in DMSO) for 1 h or 24 h, M1 (5 μM in DMSO) for 24 h, mdivi-1 and M1 together for 24 h, leflunomide (50 μM in methanol) for 1 h or 24 h, or with P110 (1 μM in water) for 1 h or 12 h. LSL or KRAS^G12D MEFs were treated with sphingolipid-like compound 893 (5 μM) for 6 h prior to fixation.
MEFs were washed twice with PBS and fixed with 4% paraformaldehyde for 10 min at RT. Cells were permeabilized with 0.3% Triton X-100 in blocking buffer containing 10% fetal bovine serum for 20 min at 37° C. followed by overnight incubation with mouse anti-citrate synthase (sc-390693, Santa Cruz Biotechnology; dilution, 1:200) or rabbit-anti-DRP1 at 1:100 (#8570, Cell Signaling Technology) at 4° C. Cells were then washed twice with PBS and incubated with AlexaFluor 488 goat anti-mouse (A28175, Invitrogen) or AlexaFluor 594 donkey anti-rabbit (A32754, Invitrogen) secondary antibodies at RT followed by 5 min incubation with 1 μg/ml DAPI and 2 washes in PBS. For NADH autofluorescence studies, mice were gavaged with vehicle or 120 mg/kg sphingolipid-like compound 893 at ZT8.5 (4-10.5 h before sacrifice between ZT12.5 and ZT18). Post sacrifice, livers were excised, washed 3× with PBS, placed in DMEM supplemented with 10% FBS and 1% penicillin-streptomycin, and immediately imaged. NADH/NADPH autofluorescence was detected with 740 nm excitation and 450±50 nm detectors using a Mai Tai two-photon laser. Fluorescence microscopy was performed on a Zeiss LSM 780 confocal using a 63× oil objective with a […] numerical aperture (NA) or using a Nikon TE2000-S inverted epifluorescence microscope with a 100× oil objective (1.3 NA) and a Photometrics CoolSNAP ES2 monochrome CCD camera. […]

PIKfyve = PIKfyve (Homo sapiens, UniProt Q9Y2I7); conditions: cited from earlier work
PIKfyve, sequence (Q9Y2I7 whole entry, species assumed): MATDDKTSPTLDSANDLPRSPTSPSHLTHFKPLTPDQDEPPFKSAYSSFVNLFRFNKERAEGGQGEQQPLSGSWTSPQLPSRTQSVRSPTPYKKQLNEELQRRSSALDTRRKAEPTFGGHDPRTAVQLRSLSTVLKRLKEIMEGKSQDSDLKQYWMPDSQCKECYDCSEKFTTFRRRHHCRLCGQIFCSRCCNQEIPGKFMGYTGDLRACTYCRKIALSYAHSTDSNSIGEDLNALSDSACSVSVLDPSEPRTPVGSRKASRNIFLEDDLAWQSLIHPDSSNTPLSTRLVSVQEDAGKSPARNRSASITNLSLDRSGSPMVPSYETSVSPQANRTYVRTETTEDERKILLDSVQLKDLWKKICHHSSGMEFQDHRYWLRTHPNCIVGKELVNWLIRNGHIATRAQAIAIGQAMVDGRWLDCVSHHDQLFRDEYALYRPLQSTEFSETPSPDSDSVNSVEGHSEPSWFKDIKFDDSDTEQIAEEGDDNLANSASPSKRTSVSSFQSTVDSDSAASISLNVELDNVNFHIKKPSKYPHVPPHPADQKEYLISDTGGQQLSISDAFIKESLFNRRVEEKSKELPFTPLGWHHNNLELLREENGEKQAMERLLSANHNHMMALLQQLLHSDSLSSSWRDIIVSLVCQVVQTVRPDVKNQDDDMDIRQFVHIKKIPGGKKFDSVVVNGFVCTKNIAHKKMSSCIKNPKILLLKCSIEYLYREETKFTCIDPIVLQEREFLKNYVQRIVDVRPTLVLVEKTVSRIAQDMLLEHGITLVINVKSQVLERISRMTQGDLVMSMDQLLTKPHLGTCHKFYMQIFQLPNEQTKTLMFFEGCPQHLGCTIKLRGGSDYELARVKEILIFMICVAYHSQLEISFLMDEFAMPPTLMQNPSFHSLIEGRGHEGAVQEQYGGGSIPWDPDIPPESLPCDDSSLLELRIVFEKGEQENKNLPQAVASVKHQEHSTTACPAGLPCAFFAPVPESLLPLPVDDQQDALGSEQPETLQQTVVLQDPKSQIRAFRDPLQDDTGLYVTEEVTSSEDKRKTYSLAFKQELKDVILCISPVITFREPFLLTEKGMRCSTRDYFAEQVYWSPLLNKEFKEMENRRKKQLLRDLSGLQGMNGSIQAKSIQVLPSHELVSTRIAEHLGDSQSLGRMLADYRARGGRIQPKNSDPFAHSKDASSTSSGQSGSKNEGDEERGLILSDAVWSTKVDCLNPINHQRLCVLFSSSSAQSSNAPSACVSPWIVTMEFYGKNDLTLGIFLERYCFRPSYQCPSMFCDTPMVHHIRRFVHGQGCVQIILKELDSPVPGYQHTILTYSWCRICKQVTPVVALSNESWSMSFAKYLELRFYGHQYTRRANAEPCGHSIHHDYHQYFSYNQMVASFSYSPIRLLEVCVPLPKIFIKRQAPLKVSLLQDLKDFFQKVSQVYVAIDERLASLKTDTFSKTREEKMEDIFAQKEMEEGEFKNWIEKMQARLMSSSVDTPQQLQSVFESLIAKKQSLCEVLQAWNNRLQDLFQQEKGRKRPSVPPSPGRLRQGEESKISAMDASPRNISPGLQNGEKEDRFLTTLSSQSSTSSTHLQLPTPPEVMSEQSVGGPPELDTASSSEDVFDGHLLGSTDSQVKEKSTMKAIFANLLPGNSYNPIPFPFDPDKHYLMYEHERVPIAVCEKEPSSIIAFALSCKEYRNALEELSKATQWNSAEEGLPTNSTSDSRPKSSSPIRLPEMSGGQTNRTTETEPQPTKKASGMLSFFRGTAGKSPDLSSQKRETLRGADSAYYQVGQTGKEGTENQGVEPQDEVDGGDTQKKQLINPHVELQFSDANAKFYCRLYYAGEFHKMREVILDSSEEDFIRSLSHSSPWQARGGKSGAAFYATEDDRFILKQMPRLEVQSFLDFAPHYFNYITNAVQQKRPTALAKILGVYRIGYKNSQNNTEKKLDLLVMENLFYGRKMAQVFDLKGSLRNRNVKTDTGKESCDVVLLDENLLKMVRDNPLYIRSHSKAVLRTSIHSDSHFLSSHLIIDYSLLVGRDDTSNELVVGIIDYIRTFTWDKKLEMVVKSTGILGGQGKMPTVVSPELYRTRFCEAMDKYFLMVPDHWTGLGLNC

[2] = cited from earlier work
[3] = 120 mg/kg by oral gavage, prior studies

For `CCCCCCCCc1ccc([C@H]2CCN[C@@H]2CO)cc1.Cl` [compound 893], the “Pre-treatment time after which the compound was effective against C16:0 ceramide-induced fragmentation” value [1] is listed as 1 h, the “Protection from ceramide-induced mitochondrial fragmentation” value ([1]; C16:0 CER 100 μM or C2-ceramide 50 μM 3 h, mdivi-1 50 μM, M1 5 μM, leflunomide 50 μM, P110 1 μM) is listed as “blocked ceramide-induced mitochondrial fragmentation” and the “Effect on PIKfyve” value (PIKfyve) is listed as “inactivates”. The “Amino acid-dependent mTORC1 signaling” value [2, 3] was “reduces amino acid-dependent mTORC1 signaling”, the “Toxicity (blood chemistry, complete blood count, liver and small intestine histology)” value [2, 3] was “without toxicity” and the Tumor growth [2, 3] was “inhibits tumor growth”. For the same compound, the Hepatotoxicity ([2]; chronic treatment with the high dose, otherwise healthy tumor-bearing mice) was “not hepatotoxic”.
